Test results taken from patent US20070197654A1, “COMBINATION OF A CB1 RECEPTOR ANTAGONIST AND OF A PRODUCT WHICH ACTIVATES DOPAMINERGIC NEUROTRANSMISSION IN THE BRAIN, THE PHARMACEUTICAL COMPOSITIONS COMPRISING THEM AND THEIR USE IN THE TREATMENT OF PARKINSON'S DISEASE” (AVENTIS PHARMA S.A., priority 2001, published 2007).
Marks after values point to notes of the source that are not given here.

Experiments:
Assay type in all cases: in vivo
Reserpine-treated rats [1] = experiment: Reserpine-induced akinesia in the rat: locomotor activity, CB1 antagonist ip combined with quinpirole; settings: CB1 antagonist 1 mg/kg i.p., locomotion recorded 1 hour
Protocol: (§1) The synergistic effect of the combination of one or more products which activate dopaminergic neurotransmission in the brain and of one or more CB1 antagonists in the treatment of Parkinson's disease was determined in a model of akinesia induced by reserpine in the rat according to the following protocol:
(§2) Male Sprague-Dawley rats were treated with reserpine administered subcutaneously at a dose of 3 mg/kg (1 ml/kg) in order to induce akinesia in the animal. 18 hours after this treatment, the locomotor activity of these animals was measured and recorded using an automatic system (Videotrack, France). The locomotion, expressed in centimeters, is estimated by a mean overall distance covered during this period (n=11-38 rats per group). The statistical analysis is carried out by variance analysis and a post-hoc comparison (if appropriate) using a Mann-Whitney or Dunnett test. A significant effect is recorded for p<0.05.
(§3) The results for the ip administration of the CB1 antagonist (Table 1) are expressed as percentage of increase with respect to the activity of quinpirole and as percentage of decrease with respect to the activity of a very strong dose of levodopa.
The combination of a CB1 receptor antagonist and of a D2 dopaminergic agonist (quinpirole) is produced in the following way: […]

Reserpine-treated rats [2] = experiment: Reserpine-treated rat, dyskinesia model: locomotor activity, CB1 antagonist ip combined with strong dose of levodopa; settings: CB1 antagonist 1 mg/kg i.p.; levodopa 120 mg/kg + benserazide 50 mg/kg i.p.; locomotion recorded 2.5 hours
Protocol: as §1, §2, §3
The combination of the CB1 receptor antagonist and of a strong dose of levodopa (dyskinesia model) is produced in the following way: […]

Reserpine-treated rats [3] = experiment: Reserpine-induced akinesia in the rat: locomotor activity, CB1 antagonist po combined with quinpirole; settings: locomotion recorded 1 hour
Protocol: as §1, §2
(§4) The studies by the oral route are carried out in a hydrophobic formulation solvent Labrafil/Labrasol (40/60%, w/w). These products are administered (in a volume of 1 ml/kg) one hour before the dopaminergic agonist. The recording of the locomotor activity begins 5 min after the intraperitoneal injection of the dopaminergic agonist and lasts 1 hour. The D1 dopaminergic agonist is 0.3 mg/kg C1-APB. The D2 dopaminergic agonist is 0.1 mg/kg quinpirole.
(§5) The results for the po administration of the CB1 antagonist at three different doses (1, 3 and 10 mg/kg/po) (Table 2) are expressed as percentage of increase with respect to the activity of quinpirole and a percentage of decrease with respect to the activity of a strong dose of C1-APB (SKF 82958).

Reserpine-treated rats [4] = experiment: Reserpine-treated rat: locomotor activity, CB1 antagonist po combined with strong dose of C1-APB (SKF 82958); settings: locomotion recorded 1 hour
Protocol: as §1, §2, §4, §5

Which results are given for `Cc1c(C(=O)NN2CCCCC2)nn(-c2ccc(Cl)cc2Cl)c1-c1ccc(Cl)cc1.Cl` [SR141716A, N-(piperidin-1-yl)-5-(4-chlorophenyl)-1-(2,4-dichlorophenyl)-4-methyl-1H-pyrazole-3-carboxamide hydrochloride]?
Combination with quinpirole (62.5 μg/kg ip): percentage of increase with respect to the activity of quinpirole (Reserpine-treated rats [1]): +116%***; Combination with levodopa (120 mg/kg ip): percentage of decrease with respect to the activity of a very strong dose of levodopa (Reserpine-treated rats [2]): −61%*; Combination with quinpirole (0.1 mg/kg ip): percentage of increase with respect to the activity of quinpirole (Reserpine-treated rats [3]; CB1 antagonist 1 mg/kg po one hour before quinpirole): +57%* NS; Combination with quinpirole (0.1 mg/kg ip): percentage of increase with respect to the activity of quinpirole (Reserpine-treated rats [3]; CB1 antagonist 3 mg/kg po one hour before quinpirole): +121%**; Combination with quinpirole (0.1 mg/kg ip): percentage of increase with respect to the activity of quinpirole (Reserpine-treated rats [3]; CB1 antagonist 10 mg/kg po one hour before quinpirole): +87%**; Combination with C1-APB (0.3 mg/kg ip): percentage of decrease with respect to the activity of a strong dose of C1-APB (Reserpine-treated rats [4]; CB1 antagonist 1 mg/kg po one hour before C1-APB): −32% NS; Combination with C1-APB (0.3 mg/kg ip): percentage of decrease with respect to the activity of a strong dose of C1-APB (Reserpine-treated rats [4]; CB1 antagonist 3 mg/kg po one hour before C1-APB): −58%*; Combination with C1-APB (0.3 mg/kg ip): percentage of decrease with respect to the activity of a strong dose of C1-APB (Reserpine-treated rats [4]; CB1 antagonist 10 mg/kg po one hour before C1-APB): −82%**
